From patent US20250127740A1, “COMPOSITION CONTAINING 3-HYDROXYANTHRANILIC ACID AND COMPOUNDS THAT ALTER IRON HOMEOSTASIS AND METHOD OF ITS USE” (priority 2021, published 2025)

Tests used:
C. elegans = type: in vivo; conditions: added to culture medium of haao-1 knockout worms (elevated endogenous 3HAA)
Description: Using the haao-1 knockout strain exposes the animals, but not their bacterial food source, to 3HAA.

E. coli [1] = assay: Colony size of E. coli on plates; type: cell-based; conditions: for effect on colony size (E. coli): 1 mM 3HAA or 8 mM FAC alone
Description: To test the effects of 3HAA, DFO and FAC on colony size, colony size was measured for E. coli in plates containing 1 mM 3HAA, 15 uM DFO, and 8 mM FAC alone and in combination.

bacterial growth = assay: Growth lag-time in liquid media; type: cell-based; conditions: 1 mM 3HAA, 15 uM DFO, alone or combined
Description: By contrast, 1 mM 3HAA alone increased lag-time by 6% individually. 15 uM DFO alone increased lag-time by 4% individually. Combination of 1 mM 3HAA with 15 uM DFO provided multiple fold impact on growth inhibition that is statistically significant to either single treatment alone.

P. aeruginosa [2] = assay: Inhibition of P. aeruginosa growth in liquid media (OD 600 nm) and CFUs on solid media; type: cell-based; conditions: different dosages, single compound
Description: (§1) 3HAA was tested for its ability to negatively impact bacterial growth. 3HAA was tested at different dosages for inhibition of E. coli and P. aeruginosa growth in liquid media (measured by optical density at 600 nm) and colony forming units (CFUs) on solid media.
(§2) Deferoxamine (DFO) was also tested for its ability to impact bacterial growth. Deferoxamine was tested at different dosages for inhibition of E. coli and P. aeruginosa growth in liquid media (measured by optical density at 600 nm) and CFUs on solid media.

E. coli [3] = type: cell-based; conditions: different dosages; liquid media OD 600 nm and CFUs on solid media; single compound
Description: as §1, §2

E. coli [4] = assay: Colony formation (CFUs) of E. coli on culture plate; type: cell-based
E. coli infection = assay: Infection of C. elegans challenged with fluorescently labeled E. coli; type: in vivo; conditions: fluorescence microscopy over 7 days
Description: Infection was monitored using fluorescence microscopy over 7 days. Heatmap of infection progression of individual animals over days—purple 32 not infected, red=high infection.

E. coli [5] = assay: Pre-treatment of E. coli in liquid media, then colony count on DFO+3HAA plates; type: cell-based; conditions: pretreatment 1 mM 3HAA or 15 uM DFO, 16 hr at 37 degrees
Description: E. coli inoculates were grown in liquid media containing either control (no additives), 1 mM 3HAA or 15 uM DFO for 16 hr at 37 degrees with shaking. The cultures were spotted to either Control plates (no additives) or plate containing DFO+3HAA and left to dry at room temperature. After incubated at 37 degrees for 16 hours, colonies were counted.

P. aeruginosa [6] = assay: Colony formation (CFUs) of P. aeruginosa on culture plate; type: cell-based; conditions: 1 mM 3HAA and 15 uM DFO alone or in combination
Description: To test the effects of 3HAA and DFO on colony formation of P. aeruginosa, 1 mM 3HAA and 15 uM DFO alone or in combination were added to culture plate containing P. aeruginosa.

[7] = 1 mM 3HAA and 8 mM FAC alone or in combination

Compound | toxicity to C. elegans relative to wild type animals (C. elegans) | decrease of colony size / colony area (E. coli) (E. coli [1]; 1 mM 3HAA, 15 uM DFO, 8 mM FAC, alone or in combination) [%] | increase in growth lag-time (bacterial growth) [%] | impact on growth of P. aeruginosa (P. aeruginosa [2]) | impact on growth of E. coli (E. coli [3]) | impact on colony formation (E. coli) (E. coli [4]; [7]) | effect on colony size (E. coli) (E. coli [1]) | protection from E. coli infection (E. coli infection; haao-1 knockout worms (high endogenous 3HAA)) | protection from E. coli infection (E. coli infection; wild type worms) | sensitization of bacteria to the 3HAA and DFO combination by pretreatment (E. coli [5]) | impact on colony formation (E. coli) (E. coli [4]; 1 mM 3HAA or 15 uM DFO alone) | impact on colony formation (P. aeruginosa) (P. aeruginosa [6])
CC(=O)N(O)CCCCCNC(=O)CCC(=O)N(O)CCCCCNC(=O)CCC(=O)N(O)CCCCCN [DFO, deferoxamine, reference compound] | neither the combination of DFO and elevated 3HAA (haao-1) nor the combination of FAC with elevated 3HAA (haao-1) were toxic | ~8 | 4 | – | – | – | – | – | – | – | – | –
ferric ammonium citrate [FAC] | – | – | – | very little impact | very little impact | no significant impact was observed | increased colony size | This protection was enhanced | protected from infection | – | – | –
Nc1c(O)cccc1C(=O)O [3HAA, 3-hydroxyanthanilic acid] | – | – | 6 | negatively affects growth of both E. coli and P. aeruginosa, but only at high doses | negatively affects growth of both E. coli and P. aeruginosa, but only at high doses | no significant impact was observed | increased colony size | – | – | sensitizes bacteria to the combination of 3HAA and DFO | Neither 1 mM 3HAA nor 15 uM DFO alone showed significant impact | neither affected colony formation alone
